Measured values taken from patent publication US20110251220A1, “Pharmaceutical compositions comprising gamma secretase modulators” (priority 2008, published 2011).

Key:
MM cells = test: Proliferation assay (CellTiter-Glo), concentration of 50% growth inhibition; type: cell-based; conditions: Homo sapiens; read-out: Concentration at which 50% cell growth inhibition was observed
Method: Human MM cell lines used were as follows: NCI-H929, OPM-2, LP-1, RPMI-8226, U266 (DSMZ, Braunschweig, Germany). Cell lines were cultured in RPMI 1640 medium (Biochrom, Berlin, Germany) supplemented with 10% heat-inactivated fetal calf serum (FCS, Gibco, Karlsruhe, Germany), 1 mM sodium pyruvate and 100 units/ml penicillin and 100 μg/ml streptomycin (Gibco). Human osteoclasts were obtained as described in the reference of Zavrski I, Krebbel H, Wildemann B, et al. Proteasome inhibitors abrogate osteoclast differentiation and osteoclast function. Biochem Biophys Res Commun. 2005; 333:200-205. Briefly, peripheral blood mononuclear cells (PBMC) were isolated from whole blood of healthy volunteers, using a Ficoll-Hypaque density gradient. The adherent fraction of the isolated mononuclear cells was cultured for 21 days in MEM medium (Sigma-Aldrich Chemie, Taufkirchen, Germany) supplemented with 10% FCS, 100 U/ml penicillin, 100 μg/ml streptomycin, 50 ng/ml M-CSF, and 25 ng/ml RANKL (osteoclastogenic medium), before coculture experiments and treatment with the inventive compounds started. Human osteoblasts were obtained according to Robey P G, Termine J D. Human bone cells in vitro. Calcif Tissue Int. 1985; 37:453-460 as described in Hecht M, Heider U, Kaiser M, von Metzler I, Sterz J, Sezer O. Osteoblasts promote migration and invasion of myeloma cells through upregulation of matrix metalloproteinases, urokinase plasminogen activator, hepatocyte growth factor and activation of p38 MAPK. Br J Haematol. 2007; 138: 446-458. Briefly, trabecular bone specimens from patients without malignant disease undergoing knee or hip surgery were minced and washed to remove bone marrow cells. The bone fragments were resuspended in Dulbecco's modified Eagle's medium (DMEM)/HAM's F12 medium (Biochrom, Berlin, Germany) supplemented with 10% FCS and cultured in tissue culture flasks until a confluent cell monolayer was obtained. Culturing of functional osteoblasts was confirmed by alkaline phosphatase (ALP) staining (kit from Sigma, USA), realtime RT-PCR analysis of expression of osteoblast markers (ALP, osteocalcin) and by von-Kossa staining before coculture and treatment experiments were started.
The compound according to example 1, hereinafter referred to as GSI15, (compound RH02015SC, Maybridge, Acros Organics, Geel, Belgium) was freshly dissolved as 26 mM stock solution in Dimethylsulfoxide (DMSO). Multiple myeloma therapeutics used were melphalan (marketed as Alkeran®, GlaxoSmithKline, Munich, Germany) and bortezomib (marketed as Velcade®, Janssen-Cilag, Neuss, Germany). Melphalan was freshly dissolved at 10 mg/ml in 0.9% NaCl-solution. Bortezomib was freshly dissolved at 100 ng/ml in 0.9% NaCl solution. Gamma Secretase Inhibitor (GSI) treatment for apoptosis assessment by AnnexinV/PI staining, cell cycle analysis and coculture experiments was performed in 6-well plates. GSI15 stock solution was added directly to the cell suspension. GSI treatment for assaying proliferation was performed in 96-well plates. 10,000 cells per well were seeded in 50 μl medium per well before 50 μl of a 2× solution of GSI15 prediluted in medium were added per well. […]
For assaying proliferation/viability of cells CellTiter-Glo Luminescent Cell Viability Assay (Promega, Mannheim, Germany) was used. In this assay the number of viable cells at a given time point is determined by quantification of ATP present, which serves as a measure of metabolically active cells. […]

human podocyte cell line = test: TGFβ-induced apoptosis in human podocyte cell line (Cell Death Detection ELISA); type: cell-based
Method: The percentage of the apoptotic cells was determined after 24 hours using the Cell Death Detection ELISA (Roche Diagnostics, Mannheim, Germany) according to the manufaturer's protocol.

male Sprague-Dawley rats = test: PAN-model of albuminuric glomerular disease; type: in vivo, rat; conditions: day 5, 500 μg/100 g rat i.p. once per day, compared to PAN alone
Method: For the in vivo studies male Sprague-Dawley rats were purchased from Charles River and treated with puromycin aminoglycoside (PAN) to induce albuminuric glomerular disease as described previously (Niranjan et al., “The Notch pathway in podocytes plays a role in the development of glomerular disease.” Nat. Med. 14: 290-298, 2008). Rats were injected PAN (150 mg/kg) once. The test compounds were administered intraperitoneally (500 μg/100 g rat) once per day (n=4 animals per group). Injection of test compounds were started one day after PAN injection. All studies were performed in accordance with the European Union normative. As a positive control one group of rats received gamma secretase inhibitor DAPT.
Urinary albumine was measured at the indicated days as described previously (Sanchez-Nino et al., “The MIF receptor CD74 in diabetic podocyte injury”. J. Am. Soc. Nephrol. 20: 353-362, 2009). For total protein measurement urine samples were centrifuged and pellets were diluted in distilled water. Exton reagent (230 mM sulfosalic acid, 1.4 M sodium sulfate) was added and after 10 minutes absorbance was measured at 620 nm.

OPM-2 cells = test: Apoptosis by AnnexinV-FITC/PI staining, OPM-2; type: cell-based, human; conditions: for cell death: OPM-2, 24 h or 48 h, single agent
Method: The compound according to example 1, hereinafter referred to as GSI15, (compound RH02015SC, Maybridge, Acros Organics, Geel, Belgium) was freshly dissolved as 26 mM stock solution in Dimethylsulfoxide (DMSO). Multiple myeloma therapeutics used were melphalan (marketed as Alkeran®, GlaxoSmithKline, Munich, Germany) and bortezomib (marketed as Velcade®, Janssen-Cilag, Neuss, Germany). Melphalan was freshly dissolved at 10 mg/ml in 0.9% NaCl-solution. Bortezomib was freshly dissolved at 100 ng/ml in 0.9% NaCl solution. Gamma Secretase Inhibitor (GSI) treatment for apoptosis assessment by AnnexinV/PI staining, cell cycle analysis and coculture experiments was performed in 6-well plates. GSI15 stock solution was added directly to the cell suspension. GSI treatment for assaying proliferation was performed in 96-well plates. 10,000 cells per well were seeded in 50 μl medium per well before 50 μl of a 2× solution of GSI15 prediluted in medium were added per well. Melphalan and bortezomib treatment as well as their combination with GSI15 for assaying apoptosis by AnnexinV/PI staining was done in 6-well plates. All inhibitors were added directly to the cells in 6-well plates.
For cell cycle analysis 2×10^5 cells were spun down, medium was aspirated and cells washed with PBS. Cells were then resuspended in 250 μl PBS. 1 ml ice-cold 70% ethanol was added, followed by overnight incubation at −20° C. Cells were spun down, the pellet washed with PBS and then resuspended in 200 μl PBS containing 0.15 mg/ml RNaseA and 30 μg/ml propidium iodide (PI). After 10 minutes incubation in the dark at room temperature, cells were analyzed by flow cytometry. The amount of apoptotic cells was determined by AnnexinV/propidium iodide staining using Human AnnexinV-FITC Kit (Bender Medsystems, Vienna, Austria), according to manufacturer's protocol. Briefly, 2×10^5 cells were spun down and washed with PBS, followed by 10 minutes incubation in binding buffer containing AnnexinV-FITC conjugate. Cells were then spun down again, resuspended in binding buffer containing PI and analyzed by flow cytometry.

Q: How did the IC50 (MM cells) turn out when `CC(C)(C)c1ccc(Oc2ncccc2NS(=O)(=O)c2ccccc2C(F)(F)F)cc1` [Example 2, N-(2-(4-tert-butylphenoxy)pyridin-3-yl)-2-(trifluoromethyl)benzenesulfonamide] was run?
A: 30 µM

Q: What about the “effect in podocyte cell culture experiments” value (human podocyte cell line) of the same compound?
A: positive effect

Q: And the inhibition at 3 µM (human podocyte cell line; Homo sapiens, 3 μM, compared to TGFβ alone, 24 hours)?
A: 27%

Q: And the inhibition at 10 µM (human podocyte cell line; Homo sapiens, 10 μM, compared to TGFβ alone, 24 hours)?
A: 27%

Q: And the inhibition of albuminuria (male Sprague-Dawley rats)?
A: 42%

Q: What about the inhibition of proteinuria (male Sprague-Dawley rats) of the same compound?
A: 37%

Q: How did the cell death (OPM-2 cells) turn out when `CC(C)C[C@H](NC(=O)[C@H](Cc1ccccc1)NC(=O)c1cnccn1)B(O)O` [bortezomib] was run?
A: dose-dependently triggered cell death

Q: `CC(Sc1nc(=O)cc(N)n1CCc1ccccc1)C(=O)Nc1cccc(Cl)c1` (stereo not shown) [Example 4, 2-(6-amino-4-oxo-1-phenethyl-1,4-dihydropyrimidin-2-ylthio)-N-(3-chlorophenyl)propanamide] was tested. Which IC50 (MM cells) did it give?
A: 20 µM

Q: For `C[C@H](NC(=O)Cc1cc(F)cc(F)c1)C(=O)N[C@H](C(=O)OC(C)(C)C)c1ccccc1` [DAPT, reference compound], which inhibition of apoptosis (human podocyte cell line; 1 μM, compared to TGFβ alone, 24 hours) is on record?
A: 37%

Q: `Nc1cc(=O)nc(SCC(=O)Nc2ccc(Cl)cc2)n1CCc1ccccc1` [Example 5, 2-(6-amino-4-oxo-1-phenethyl-1,4-dihydropyrimidin-2-ylthio)-N-(4-chlorophenyl)acetamide] was tested. Which IC50 (MM cells) did it give?
A: 20 µM

Q: `Cc1ccc(Sc2ncccc2NS(=O)(=O)c2ccc(Cl)cc2)cc1` [Example 3, 4-chloro-N-(2-(p-tolylthio)pyridin-3-yl)benzenesulfonamide] was tested. Which IC50 (MM cells) did it give?
A: 30 µM

Q: Which apoptotic cells (OPM-2 cells; OPM-2, 50 μM melphalan alone, 24 h) does the source give for `N[C@@H](Cc1ccc(N(CCCl)CCCl)cc1)C(=O)O` [melphalan] here?
A: 32%

Q: What about the cell death (OPM-2 cells) of the same compound?
A: dose-dependently triggered cell death
